Where “and” joins values, the source holds several entries; their conditions need not be identical. Equal entries are not always repeated. Inconclusive results and toxic doses are left out. The calls were made as follows: active = survival T/C of 150% or more; inactive = T/C below 125% in these data.
System: P388 leukemia ip, CD2F1 mice, survival T/C
Experiment: NCI In Vivo Anticancer Drug Screen. Data for tumor model P388 Leukemia (intraperitoneal) in CD2F1 (CDF1) mice
Details: endpoint: median survival time, higher = longer survival
Procedure, shortened: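 Mice carrying the transplanted tumor received test compound or vehicle. Survival was recorded in each group, and the value is the treated-group measurement divided by that of the vehicle-treated control group.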

[1] = dose: 25.0 mg/kg/injection, schedule: Q01DX009 (ip), vehicle: saline with Tween-80
[2] = dose: 50.0 mg/kg/injection, schedule: Q01DX009 (ip), vehicle: saline
[3] = dose: 100.0 mg/kg/injection, schedule: Q01DX009 (ip), vehicle: saline
[4] = dose: 200.0 mg/kg/injection, schedule: Q01DX009 (ip), vehicle: saline
[5] = dose: 25.0 mg/kg/injection, schedule: Q01DX005 (ip), vehicle: Klucel (hydroxypropylcellulose) (HPC)
[6] = dose: 6.25 mg/kg/injection, schedule: Q01DX009 (ip), vehicle: Klucel (hydroxypropylcellulose) (HPC)
[7] = dose: 12.5 mg/kg/injection, schedule: Q01DX009 (ip), vehicle: Klucel (hydroxypropylcellulose) (HPC)
[8] = dose: 25.0 mg/kg/injection, schedule: Q01DX009 (ip), vehicle: Klucel (hydroxypropylcellulose) (HPC)
[9] = dose: 50.0 mg/kg/injection, schedule: Q01DX005 (ip), vehicle: Klucel (hydroxypropylcellulose) (HPC)
[10] = dose: 100.0 mg/kg/injection, schedule: Q01DX005 (ip), vehicle: Klucel (hydroxypropylcellulose) (HPC)
[11] = dose: 200.0 mg/kg/injection, schedule: Q01DX005 (ip), vehicle: Klucel (hydroxypropylcellulose) (HPC)
[12] = dose: 50.0 mg/kg/injection, schedule: Q04DX003 (ip), vehicle: saline
[13] = dose: 100.0 mg/kg/injection, schedule: Q04DX003 (ip), vehicle: saline
[14] = dose: 100.0 mg/kg/injection, schedule: Q01DX001 (ip), vehicle: Klucel (hydroxypropylcellulose) (HPC)
[15] = dose: 200.0 mg/kg/injection, schedule: Q01DX001 (ip), vehicle: Klucel (hydroxypropylcellulose) (HPC)
[16] = dose: 400.0 mg/kg/injection, schedule: Q01DX001 (ip), vehicle: Klucel (hydroxypropylcellulose) (HPC)
[17] = dose: 50.0 mg/kg/injection, schedule: Q01DX005 (ip), vehicle: saline with Tween-80
[18] = dose: 100.0 mg/kg/injection, schedule: Q01DX005 (ip), vehicle: saline with Tween-80

Measured: T/C

COc1cccc2c1C(=O)c1c(O)c3c(c(O)c1C2=O)CC(O)(C(=O)COc1ccccc1)CC3OC1CC(NC(=O)C(F)(F)F)C(O)C(C)O1 (configuration not stated)
inactive: dose: 1.56 mg/kg/injection, schedule: Q01DX009 (ip), vehicle: other 98 % of control and 102 % of control | dose: 3.13 mg/kg/injection, schedule: Q01DX009 (ip), vehicle: other 102 % of control and 110 % of control | dose: 12.5 mg/kg/injection, schedule: Q01DX009 (ip), vehicle: other 105 % of control | dose: 25.0 mg/kg/injection, schedule: Q01DX009 (ip), vehicle: other 114 % of control

O=C1CN(Cc2ccc3c(c2)OCO3)NO1
inactive: [1] 111 % of control | dose: 50.0 mg/kg/injection, schedule: Q01DX009 (ip), vehicle: saline with Tween-80 104 % of control and 108 % of control | dose: 100.0 mg/kg/injection, schedule: Q01DX009 (ip), vehicle: saline with Tween-80 101 % of control | dose: 200.0 mg/kg/injection, schedule: Q01DX009 (ip), vehicle: saline with Tween-80 119 % of control and 86 % of control

O=C(c1ccccc1)c1ccccc1NCC(O)COc1ccc(Cl)cc1 (configuration not stated)
inactive: dose: 60.0 mg/kg/injection, schedule: Q01DX005 (ip), vehicle: saline with Tween-80 88 % of control and 96 % of control | dose: 120.0 mg/kg/injection, schedule: Q01DX005 (ip), vehicle: saline with Tween-80 100 % of control | dose: 240.0 mg/kg/injection, schedule: Q01DX005 (ip), vehicle: saline with Tween-80 99 % of control

C=C1C(=O)C2=CC1CCC(=O)C1(C)C(OC(C)=O)CC(OC(C)=O)C(C)(C)C1CC2O (configuration not stated)
inactive: dose: 17.5 mg/kg/injection, schedule: Q01DX005 (ip), vehicle: Klucel (hydroxypropylcellulose) (HPC) 108 % of control | dose: 35.0 mg/kg/injection, schedule: Q01DX005 (ip), vehicle: Klucel (hydroxypropylcellulose) (HPC) 109 % of control | dose: 70.0 mg/kg/injection, schedule: Q01DX005 (ip), vehicle: Klucel (hydroxypropylcellulose) (HPC) 111 % of control

CC(=O)C1=C(O)/C(=C\c2ccccc2)OC1=O
inactive: dose: 50.0 mg/kg/injection, schedule: Q01DX009 (ip), vehicle: Klucel (hydroxypropylcellulose) (HPC) 92 % of control | dose: 100.0 mg/kg/injection, schedule: Q01DX009 (ip), vehicle: Klucel (hydroxypropylcellulose) (HPC) 107 % of control

CCCCOc1ccc2nc3cc(Cl)ccc3c(Cl)c2n1
inactive: dose: 6.25 mg/kg/injection, schedule: Q01DX005 (ip), vehicle: saline with Tween-80 92 % of control | dose: 12.5 mg/kg/injection, schedule: Q01DX005 (ip), vehicle: saline with Tween-80 93 % of control | dose: 25.0 mg/kg/injection, schedule: Q01DX005 (ip), vehicle: saline with Tween-80 86 % of control

CCOC(=O)C(C(=O)OCC)C(C)(C)C
inactive: [2] 100 % of control | [3] 102 % of control | [4] 109 % of control | dose: 400.0 mg/kg/injection, schedule: Q01DX009 (ip), vehicle: saline 109 % of control

CCN(CC)C(=S)n1c(=S)nc(N(CC)CC)sc1=S
inactive: dose: 6.25 mg/kg/injection, schedule: Q01DX005 (ip), vehicle: Klucel (hydroxypropylcellulose) (HPC) 109 % of control | dose: 12.5 mg/kg/injection, schedule: Q01DX005 (ip), vehicle: Klucel (hydroxypropylcellulose) (HPC) 98 % of control | [5] 108 % of control

NNc1n[nH]c(=S)n1N
inactive: [6] 94 % of control | dose: 6.25 mg/kg/injection, schedule: Q01DX009 (ip), vehicle: saline with Tween-80 109 % of control | [7] 94 % of control | dose: 12.5 mg/kg/injection, schedule: Q01DX009 (ip), vehicle: saline with Tween-80 100 % of control | [8] 106 % of control | [1] 104 % of control

CC12CCC(CC1=O)C2(C)CC#N (configuration not stated)
inactive: dose: 7.5 mg/kg/injection, schedule: Q01DX005 (ip), vehicle: saline 101 % of control | dose: 15.0 mg/kg/injection, schedule: Q01DX005 (ip), vehicle: saline 100 % of control

Clc1ccccc1C(Nc1nc2ccccc2s1)Nc1nc2ccccc2s1
inactive: [9] 102 % of control | [10] 99 % of control | [11] 99 % of control

NCCc1c[nH]c2ccc(OCc3ccccc3)cc12
inactive: [12] 109 % of control | [13] 116 % of control

CCOc1nc(C(=O)O)cc2sccc12
inactive: [14] 90 % of control | [15] 93 % of control | [16] 88 % of control

COc1cc2c(cc1OC)NCC1COc3c(ccc(OC)c3OC)C1=N2 (configuration not stated)
inactive: [17] 96 % of control | [18] 88 % of control | dose: 200.0 mg/kg/injection, schedule: Q01DX005 (ip), vehicle: saline with Tween-80 92 % of control

COC=C=CC(C)(C)OC
inactive: [5] 102 % of control and 110 % of control | [9] 103 % of control and 91 % of control and 95 % of control | [10] 103 % of control and 112 % of control and 121 % of control | [11] 100 % of control and 103 % of control and 114 % of control

Nc1ccc(Nc2ccncc2)cc1
inactive: [6] 100 % of control | [7] 95 % of control | [8] 100 % of control

CC(C)(O)c1ccccc1[S+]1OC(C)(C)c2ccccc21 (configuration not stated)
inactive: dose: 100.0 mg/kg/injection, schedule: Q04DX002 (ip), vehicle: saline with Tween-80 109 % of control | dose: 200.0 mg/kg/injection, schedule: Q04DX002 (ip), vehicle: saline with Tween-80 112 % of control | dose: 400.0 mg/kg/injection, schedule: Q04DX002 (ip), vehicle: saline with Tween-80 109 % of control

O=C1c2ccc(Cl)cc2-n2c1nc1ccccc1c2=O
inactive: [14] 100 % of control | [15] 93 % of control | [16] 93 % of control

O=S(=O)(c1ccccc1)N1CCCCN(S(=O)(=O)c2ccccc2)COC1
inactive: [9] 104 % of control | [10] 102 % of control | [11] 102 % of control

C/C(=N\NC(=S)N1CCN(C)CC1)c1ccccn1
inactive: dose: 25.0 mg/kg/injection, schedule: Q04DX003 (ip), vehicle: saline 104 % of control | [12] 107 % of control | [13] 101 % of control

CCCCN(CCCC)CCOc1ccc(/C(CC)=C(/CC)c2ccc(OCCN(CCCC)CCCC)cc2)cc1
inactive: dose: 12.5 mg/kg/injection, schedule: Q01DX005 (ip), vehicle: saline 100 % of control | dose: 25.0 mg/kg/injection, schedule: Q01DX005 (ip), vehicle: saline 87 % of control | dose: 50.0 mg/kg/injection, schedule: Q01DX005 (ip), vehicle: saline 100 % of control and 102 % of control

CC1C2(c3ccccc3)C(C(=O)c3ccccc3)NC(c3ccccc3)C12c1ccccc1 (configuration not stated)
inactive: [17] 87 % of control | [18] 87 % of control

C1=CCN(c2nc(N3CCOCC3)nc(N3CCCc4ccccc43)n2)CC1
inactive: [2] 99 % of control | [3] 97 % of control | [4] 99 % of control
